Source: US6827926B2, “Metallotetrapyrrolic photosensitizing agents for use in photodynamic therapy” (Miravant Pharmaceuticals, Inc., priority 2001, dated 2004)
Where two headings read alike, the source gives them in different places.

Key:
[1] = test system: V79 (Chinese Hamster Lung Fibroblasts) cells; experiment: In vitro cytotoxicity assay (light EC50, Alamar blue); format: cell-based
Outline: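 V79 cells in phenol-free 5% FBS/DMEM exposed 24 h to photosensitizer at final 0.01–5.0 μM, six replicates, then washed and light-treated, with a dark plate as control. Survival by Alamar blue after 24 h dark incubation, read at 570/600 nm.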

[2] = test system: normal skin of CD Hairless male rats; format: in vivo, rat
Outline: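 Liposomal egg yolk phospholipid photosensitizer given as single i.v. tail-vein bolus at 1, 1.5 and 2 μmol/kg; skin spots irradiated with 532 nm laser (150 mW/cm^2, 150J, 1 cm) at 1, 6, 24, 48, 96 hrs post injection. Value is time of last observed skin response spot.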

[3] = test system: normal uninjured rat carotid arteries (medial and adventitial cell populations); experiment: In vivo rat carotid artery acellularity after PDT; set-up: species or system Sprague Dawley rats; conditions: for Max % rat Artery Accelularity: Table 3, 50 J/cm^2, 3 days post treatment; for Max % Rat Artery Acceluarity: Table 5; for accelularity in rat artery at a four hour treatment point: 4 hrs post administration
Outline: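 Metallated photosensitizers light-activated in normal uninjured rat left common carotid via balloon catheter introduced through femoral arteriotomy under isoflurane; excitation 575 nm (Ga, Zn, Al, Sn) or 532 nm (Pt). Arteries harvested 3 days post-treatment, H&E-stained; medial and adventitial cell density assessed by light microscopy.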

[4] = test system: skin of Sprague Dawley rats; experiment: Topical in-vivo skin response, Sprague Dawley rats (single topical dermal application)
[5] = Systemic toxicity in animals near the therapeutic dose; conditions: 3× the therapeutic dose
[6] = Table 3 porphyrins, 24 h drug incubation, 532 nm, 1.25 J/cm^2, read-out: In Vitro EC50 Light
[7] = Table 3, time of last skin spot observed post injection, 1 μmol, 532 nm laser
[8] = Table 4 azaporphyrins, 575 nm (Pt azaporphyrins 532 nm), 1.25 J/cm^2, read-out: In Vitro EC(50)
[9] = Table 4, drug dose 1 μMol, 575 nm (Pt 532 nm)
[10] = Table 5 plant derived gallium porphyrins, light, read-out: In Vitro EC(50)

Compound | EC50 [1, 6] | Max % rat Artery Accelularity ([3]; drug dose 1 μMol) | Normal skin Response (1 μmol) ([2]; rat, in vivo) | also measured
CCCOC(=O)CCC1=C(C)c2cc3[n-]c(cc4nc(cc5[n-]c(cc1n2)c(CCC(=O)OCCC)c5C)C(CC)=C4C)c(CC)c3C.[Cl-].[Ga+3] [Example 3, Gallium Chloride Mesoporphyrin Dipropyl Ester] | 60 nM | 85% |  | Normal skin Response (1 μmol) [2, 7]: 6 h; delay of hair regrowth ([4]; topical 0.14 mg/cm^2): approximately 21 days; skin response ([4]; topical 0.14 mg/cm^2): no skin response; clearing formation of the skin first seen, time post light treatment ([4]; topical 0.28 mg/cm^2): 7 days; delay of hair regrowth in the treatment site post light treatment ([4]; topical 0.28 mg/cm^2): approximately 38 days; persistence of clearing formation of the skin ([4]; topical 0.28 mg/cm^2): at least 28 days; clearing formation, duration ([4]; topical 0.6 mg/cm^2): at least 30 days; skin responses (small, slight eschar), duration post light treatment ([4]; topical 0.6 mg/cm^2): approximately 10 days; time hair did not regrow in the treatment site post light treatment ([4]; topical 0.6 mg/cm^2): approximately 38 days; variable clearing persisting post light treatment ([4]; topical 0.6 mg/cm^2): up to 3 months
CCC1=C(C)c2cc3[n-]c(cc4nc(cc5[n-]c(cc1n2)c(C)c5CC)C(C)=C4CCCC(=O)OC)c(CCCC(=O)OC)c3C.[Cl-].[In+3] [Example 46, Indium Chloride 8,13-diethyl-3,7,12,17-tetramethylporphyrin-2,18-di(butanoic acid methyl ester)] | 40 nM | 90% |  | Normal skin Response (1 μmol) [2, 7]: 48 h; toxicity in animals [5]: death occurs in the animals at 3× the therapeutic dose
CCC1=C(C)c2cc3[n-]c(cc4nc(cc5[n-]c(cc1n2)c(C)c5CC)C(C)=C4CCCCC(=O)[O-])c(CCCCC(=O)[O-])c3C.[Ga+3].[Na+].[Na+].[OH-] [Example 114, Gallium Hydroxy 8,13-diethyl-3,7,12,17-tetramethylporphyrin-2,18-di(pentanoic acid sodium salt)] | 2300 nM | 20% | 24 h | 
CCCOC(=O)CCC1=C(C)c2cc3[n-]c(cc4nc(cc5[n-]c(cc1n2)c(CCC(=O)OCCC)c5C)C=C4C)cc3C.[Cl-].[Ga+3] [Example 122, Gallium Chloride Deuteroporphyrin Di-propylester] | 350 nM | 95% | 6 h | 
C=CC1=C(C)C2=Cc3c(C=C)c(C)c4[n]3[Al-2]35([Cl])[n]6c(c(C)c(CCC(=O)OC)c6=CC6=[N+]3C(=C4)C(C)=C6CCC(=O)OC)=CC1=[N+]25 [M=Al R1=V R3=Me R4=V R2=CO2Me] | 3500 nM | 0% | 6 h | 
C=CC1=C(C)C2=Nc3c(C=C)c(C)c4[n]3[Ga-2]35([Cl])[n]6c(c(C)c(CCC(=O)NC)c6=CC6=[N+]3C(=C4)C(C)=C6CCC(=O)NC)=CC1=[N+]25 [M=Ga R1,R3=Me R2,R4=V R=CONHMe] |  |  | 24 h | EC50 [1, 8]: 500 nM; Max % Rat Artery Accelularity [3, 9]: 50%
CCC1=C(C)C2=Cc3c(CC)c(C)c4[n]3[Ga-2]35([Cl])[n]6c(c(C)c(CO)c6=CC6=[N+]3C(=C4)C(C)=C6CCCO)=CC1=[N+]25 [M=Ga R1=CH2OH R2=Et R3=Et R4=CH2OH R5=H] |  |  | 48 h | EC50 [1, 10]: 410 nM; Max % Rat Artery Acceluarity ([3]; drug dose 1 μMol): 70%
CCC1=C(C)C2=Cc3c(CC)c(C)c4[n]3[Ga-2]35([Cl])[n]6c(c(C)c(C(=O)NC)c6=CC6=[N+]3C(=C4)C(C)=C6CCC(=O)O)=CC1=[N+]25 [M=Ga R1=CO2H R2=Et R3=Et R4=CONHMe R5=H] |  |  | 6 h | EC50 [1, 10]: 500 nM; Max % Rat Artery Acceluarity ([3]; drug dose 1 μMol): 50%
CCC1=C(C)C2=Cc3c(CC)c(C)c4[n]3[Ga-2]35([Cl])[n]6c(c(C)c(C(=O)OC)c6=CC6=[N+]3C(=C4)C(C)=C6CCC(=O)NC)=CC1=[N+]25 [M=Ga R1=CONHMe R2=Et R3=Et R4=CO2Me R5=H] |  |  | 6 h | EC50 [1, 10]: 420 nM; Max % Rat Artery Acceluarity ([3]; drug dose 1 μMol): 65%
CCC1=C(C)C2=Cc3c(CC)c(C)c4[n]3[Ga-2]35([Cl])[n]6c(c(C)c(CCCC(=O)OCCF)c6=CC6=[N+]3C(=C4)C(C)=C6CCCC(=O)OCCF)=CC1=[N+]25 [M=Ga R1=Et R3=Me R4=Et R2=CH2CO2CH2CH2F] | 400 nM | 75% | 24 h | 
CCOC(=O)CCCC1=C(C)C2=Cc3c(C)c(CC)c4[n]3[Ga-2]35([Cl])[n]6c(c(C)c(CCCC(=O)OCC)c6=CC1=[N+]23)=CC1=[N+]5C(=C4)C(C)=C1CC [M=Ga R1=Et R3=Me R4=Et R2=CH2CO2Et] | 400 nM | 80% | 24 h | 
CCC1=C(C)C2=Cc3c(CC)c(C)c4[n]3[Ga-2]35([Cl])[n]6c(c(C)c(CCC(=O)O)c6=CC6=[N+]3C(=C4)C(C)=C6CCC(=O)O)=CC1=[N+]25 [M=Ga R1=Et R3=Me R4=Et R2=CO2H] | 2000 nM | 15% | 24 h | accelularity in rat artery at a four hour treatment point [3]: 15%
CCCCCCNC(=O)CCC1=C(C)C2=Cc3c(C)c(CC)c4[n]3[Ga-2]35([Cl])[n]6c(c(C)c(CCC(=O)NCCCCCC)c6=CC1=[N+]23)=CC1=[N+]5C(=C4)C(C)=C1CC [M=Ga R1=Et R3=Me R4=Et R2=CONH(Hexyl)] | 400 nM | 60% |  | Normal skin Response (1 μmol) [2, 7]: 96 h; normal skin responses, time post drug injection ([2]; rats, drug dose 1 μmol/Kg): 96 h
CCC1=C(CC)c2nc1cc1[nH]c(cc3nc(cc4[nH]c(n2)c(CC)c4CC)C(C)=C3CCC(=O)O)c(CCC(=O)O)c1C [M=H2 R1,R3=Et R2,R4=Et R=CO2H] |  |  |  | EC50 [1, 8]: 450 nM; Normal skin Response (1 μmol) in hrs ([2]; rat, in vivo): None; accelularity in rat artery at a four hour treatment point [3]: 0%; Max % Rat Artery Accelularity [3, 9]: 0%
C=CC1=C(C)C2=Cc3c(C=C)c(C)c4[n]3[Sn-2]35([Cl])([Cl])[n]6c(c(C)c(CCC(=O)OC)c6=CC6=[N+]3C(=C4)C(C)=C6CCC(=O)OC)=CC1=[N+]25 [M=Sn R1=V R3=Me R4=V R2=CO2Me] | 1400 nM | 10% |  | Normal skin Response (1 μmol) [2, 7]: 24 h
Aluminum Chloride 7,8,12,13-tetraethyl-12,17-dimethyl-10-azaporphyrin-2,18-di(propionic acid methyl ester) [Example 84] |  |  | 48 h | EC50 [1, 8]: 40 nM; Max % Rat Artery Accelularity [3, 9]: 50%
Aluminum Chloride Mesoporphyrin Dimethyl Ester [Example 30] | 3000 nM | 0% | 24 h | 
Gallium Chloride 3,7,14,17-tetramethyl-5,10-diazaporphyrin-2,8,12,18-tetra(propionic acid methyl ester) [Example 116] |  |  |  | EC50 ([1]; light EC50, metallodiazaporphyrins, read-out: In Vitro EC(50)): 350 nM; Normnal skin Response (1 μmol) ([2]; rat, in vivo): 4; Max % Rat Artery Accelularity ([3]; drug dose 1 (μMol), i.v., 50 J/cm^2, 160 mW/cm^2, Ga excited at 575 nm, sacrifice three days post treatment): 55%
Gallium Chloride 8,13-diethyl-3,7,12,17-tetramethylporphyrin-2,18-di(3′-hydroxypropyl) [Example 7] | 550 nM | 95% | 48 h | reduction of smooth muscle cells in the media and myofibroblasts in the adventitial layers of rat arteries ([3]; text b238): efficient at dramatically reducing the number of smooth muscle cells
Gallium Chloride 8,13-diethyl-3,7,12,17-tetramethylporphyrin-2,18-di(3′-methoxypropyl) [Example 10] | 400 nM | 75% | 48 h | 
Gallium Chloride Chloroporphyrin e6 Trimethyl Ester [Example 13] |  |  | 6 h | EC50 [1, 10]: 400 nM; Max % Rat Artery Acceluarity ([3]; drug dose 1 μMol): 70%
Gallium Chloride Mesoporphyrin III Dimethyl Ester [Example 115] | 300 nM | 10% | 6 h | 
Gallium Chloride Rhodoporphyrin Di-methylester [Example 123] |  |  | 6 h | EC50 [1, 10]: 400 nM; Max % Rat Artery Acceluarity ([3]; drug dose 1 μMol): 60%
Tin (IV) Dichloride Mesoporphyrin Dimethyl Ester [Example 32] | 1400 nM | 20% | 24 h | 
